Experimental data taken from patent publication US6121285A, “Substituted aminocycloalkylpyrrolidine derivatives and cis-substituted aminocycloalkylpyrrolidine derivatives” (Daiichi Pharmaceutical Co., Ltd., priority 1995, dated 2000).
≈ marks a conversion by molar mass, not a printed value. Like-named read-outs stand apart in the source and are kept apart here.

Experiments:
[1] = system: Slc:ddy five week male mice; experiment: Acute toxicity, intravenous administration to mice; type: in vivo; settings: for acute toxicity result in words: same test as cis/trans (cis: 0/5 deaths); for Number of death: hydrochloride in distilled water
Procedure: A solution of 5-amino-7-[4-(R)-(1-aminocyclopropyl)-3-(S)-fluoro-1-pyrrolidinyl]-6-fluoro-1-[2-(S)-fluoro-1-(R)-cyclopropyl]-1,4-dihydro-8-methyl-4-oxoquinoline-3-carboxylic acid (abbreviated as cis) hydrochloride of Example 15 or 5-amino-7-[4-(R)-(1-aminocyclopropyl)-3-(R)-fluoro-1-pyrrolidinyl]-6-fluoro-1-[2-(S)-fluoro-1-(R)-cyclopropyl]-1,4-dihydro-8-methyl-4-oxoquinoline-3-carboxylic acid (abbreviated as trans) hydrochloride in distilled water for injection was administered intravenously to Slc:ddy five week male mice (five mice per group) and the symptoms are observed.

[2] = system: S. epidermidis, 56500; experiment: Antimicrobial activity (MIC), standard method of the Japan Society of Chemotherapy; type: cell-based
Procedure: (§1) Examples of the first and second aspects of the present invention are given below by way of illustration and not by way of limitation. In-this regard, the antibacterial and antimicrobial activities of the compounds of interest were measured in accordance with the standard method specified by the Japan Society of Chemotherapy. The results are shown in Tables 1 to 5 as a minimum inhibitory concentration (MIC,μg/ml). Unless otherwise indicated, all percents (%) are by weight.

[3] = system: E. coli, NIHJ; experiment: as above; type: cell-based
Procedure: as §1

[4] = system: Ps. aeruginosa, 32121; experiment: as above; type: cell-based
Procedure: as §1

[5] = system: Pr. vulgaris, 08601; experiment: as above; type: cell-based; settings: for MIC: Proteus vulgaris, read-out: minimum inhibitory concentration (MIC)
Procedure: as §1

[6] = system: S. aureus, 870307; experiment: as above; type: cell-based
Procedure: as §1

[7] = system: Ser. marcescens, 10100; experiment: as above; type: cell-based
Procedure: as §1

[8] = system: S. flexneli, 2A 5503; experiment: as above; type: cell-based; settings: for minimum inhibitory concentration (MIC): S. flexneli, 2A 5503
Procedure: as §1

[9] = system: S. aureus, 209P; experiment: as above; type: cell-based
Procedure: as §1

[10] = system: Pr. mirabilis, IFO-3849; experiment: as above; type: cell-based
Procedure: as §1

[11] = system: Ps. aeruginosa, 32104; experiment: as above; type: cell-based; settings: for minimum inhibitory concentration (MIC): Ps. aeruginosa
Procedure: as §1

[12] = system: Str. pyogenes, G-36; experiment: as above; type: cell-based
Procedure: as §1

[13] = system: Ps. maltophilia, IID-1275; experiment: as above; type: cell-based
Procedure: as §1

[14] = system: Str. faecalis, ATCC-19433; experiment: as above; type: cell-based
Procedure: as §1

[15] = 150 mg/kg, * = test stopped when second mouse died
[16] = Staphylococcus epidermidis, S. epidermidis, 56500, read-out: minimum inhibitory concentration (MIC)
[17] = Staphylococcus aureus, read-out: minimum inhibitory concentration (MIC)

For `C[C@H]1COc2c(N3C[C@@H](F)[C@@H](C4(N)CC4)C3)c(F)c(N)c3c(=O)c(C(=O)O)cn1c23` [Example 21, 8-Amino-10-[4-(R)-(1-aminocyclopropyl)-3-(S)-fluoro-1-pyrrolidinyl]-9-fluoro-2,3-dihydro-3-(S)-methyl-7-oxo-7H-pyrido[1,2,3-de][1,4]benzoxazine-6-carboxylic acid], the “acute toxicity result in words” value ([1]; 150 mg/kg) was “same result” and the MIC ([2]; Staphylococcus epidermidis, 56500, read-out: minimum inhibitory concentration (MIC)) was 0.013 mg/L (≈ 0.0309 µM).
In the case of `Cc1c(N2C[C@H](F)[C@@H](C3(N)CC3)C2)c(F)c(N)c2c(=O)c(C(=O)O)cn([C@@H]3C[C@@H]3F)c12.Cl` [Example 5, 5-Amino-7-[4-(R)-(1-aminocyclopropyl)-3-(R)-fluoro-1-pyrrolidinyl]-6-fluoro-1-[2-(S)-fluoro-1-(R)-cyclopropyl]-1,4-dihydro-8-methyl-4-oxoquinoline-3-carboxylic acid hydrochloride], the Number of death ([1]; 50 mg/kg) is reported as 0/5, the Number of death ([1]; 100 mg/kg, * = test stopped when second mouse died) is reported as 2/2 and the Number of death [1, 15] is reported as 2/2. The MIC [2, 16] was ≤ 0.003 mg/L.
With `Cc1c(N2C[C@@H](F)[C@@H](C3(N)CCC3)C2)c(F)c(N)c2c(=O)c(C(=O)O)cn([C@@H]3C[C@@H]3F)c12` (single isomer, unassigned; isomer b) [Example 13] the “acute toxicity result in words” value ([1]; 150 mg/kg) was “same result”, the “minimum inhibitory concentration (MIC)” value [3] was ≤ 0.003 mg/L and the “minimum inhibitory concentration (MIC)” value [4] was 0.10 mg/L (≈ 0.222 µM). For the same compound, the “minimum inhibitory concentration (MIC)” value [5] was 0.025 mg/L (≈ 0.0555 µM), the “minimum inhibitory concentration (MIC)” value ([2]; S. epidermidis, 56500) was 0.006 mg/L (≈ 0.0133 µM) and the “minimum inhibitory concentration (MIC)” value [6] was 0.05 mg/L (≈ 0.111 µM). For the same compound, the “minimum inhibitory concentration (MIC)” value [7] was 0.20 mg/L (≈ 0.444 µM), the “minimum inhibitory concentration (MIC)” value [8] was 0.006 mg/L (≈ 0.0133 µM) and the “minimum inhibitory concentration (MIC)” value [9] was ≤ 0.003 mg/L. The “minimum inhibitory concentration (MIC)” value [10] was 0.05 mg/L (≈ 0.111 µM), the “minimum inhibitory concentration (MIC)” value [11] was 0.20 mg/L (≈ 0.444 µM) and the “minimum inhibitory concentration (MIC)” value [12] was 0.006 mg/L (≈ 0.0133 µM). The “minimum inhibitory concentration (MIC)” value [13] was 0.20 mg/L (≈ 0.444 µM) and the “minimum inhibitory concentration (MIC)” value [14] was 0.025 mg/L (≈ 0.0555 µM).
With `Cc1c(N2C[C@H](C)[C@@H](C3(N)CC3)C2)c(F)c(N)c2c(=O)c(C(=O)O)cn([C@@H]3C[C@@H]3F)c12` [Example 3, 5-Amino-7-[(3R,4R)-3-(1-aminocyclopropyl)-4-methyl-1-pyrrolidinyl]-6-fluoro-1-[(1R,2S)-2-fluorocyclopropyl]-1,4-dihydro-8-methyl-4-oxoquinoline-3-carboxylic acid] the MIC ([3]; Escherichia coli, read-out: minimum inhibitory concentration (MIC)) was ≤ 0.003 mg/L, the MIC ([4]; Pseudomonas aeruginosa, read-out: minimum inhibitory concentration (MIC)) was 0.1 mg/L (≈ 0.231 µM) and the MIC [5] was 0.025 mg/L (≈ 0.0578 µM). The MIC [2, 16] was ≤ 0.003 mg/L, the MIC [6, 17] was 0.025 mg/L (≈ 0.0578 µM) and the MIC ([7]; Serratia marcescens, read-out: minimum inhibitory concentration (MIC)) was 0.1 mg/L (≈ 0.231 µM). For the same compound, the MIC ([8]; read-out: minimum inhibitory concentration (MIC), S. flexneli, 2A 5503) was ≤ 0.003 mg/L, the MIC [9, 17] was ≤ 0.003 mg/L and the MIC ([10]; Proteus mirabilis, IFO3849, read-out: minimum inhibitory concentration (MIC)) was 0.05 mg/L (≈ 0.116 µM). For the same compound, the MIC ([11]; Pseudomonas aeruginosa, 32104, Ps. aeruginosa, read-out: minimum inhibitory concentration (MIC)) was 0.2 mg/L (≈ 0.462 µM), the MIC ([12]; Streptococcus pyogenes, G36, read-out: minimum inhibitory concentration (MIC)) was ≤ 0.003 mg/L and the MIC ([13]; Stenotrophomonas maltophilia, IID1275, read-out: minimum inhibitory concentration (MIC)) was 0.1 mg/L (≈ 0.231 µM). The MIC ([14]; Enterococcus faecalis, ATCC19433, read-out: minimum inhibitory concentration (MIC)) was 0.025 mg/L (≈ 0.0578 µM).
`COc1c(N2C[C@@H](F)[C@@H](C3(N)CC3)C2)c(F)c(N)c2c(=O)c(C(=O)O)cn([C@@H]3C[C@@H]3F)c12` [Example 16, 5-Amino-7-[4-(R)-(1-aminocyclopropyl)-3-(S)-fluoro-1-pyrrolidinyl]-6-fluoro-1-[2-(S)-fluoro-1-(R)-cyclopropyl]-1,4-dihydro-8-methoxy-4-oxoquinoline-3-carboxylic acid] was tested, and the “acute toxicity result in words” value ([1]; 150 mg/kg) was “same result”.
With `C[C@H]1COc2c(N3C[C@@H](F)[C@@H](C4(N)CC4)C3)c(F)cc3c(=O)c(C(=O)O)cn1c23` [Example 17, 10-[4-(R)-(1-Aminocyclopropyl)-3-(S)-fluoro-1-pyrrolidinyl]-9-fluoro-2,3-dihydro-3-(S)-methyl-7-oxo-7H-pyrido[1,2,3-de][1,4]benzoxazine-6-carboxylic acid] the “acute toxicity result in words” value ([1]; 150 mg/kg) was “same result”.
In the case of `COc1c(N2C[C@@H](F)[C@@H](C3(N)CC3)C2)c(F)cc2c(=O)c(C(=O)O)cn([C@@H]3C[C@@H]3F)c12` [Example 12, 7-[4-(R)-(1-Aminocyclopropyl)-3-(S)-fluoro-1-pyrrolidinyl]-6-fluoro-1-[2-(S)-fluoro-1-(R)-cyclopropyl]-1,4-dihydro-8-methoxy-4-oxoquinoline-3-carboxylic acid], the “acute toxicity result in words” value ([1]; 150 mg/kg) is reported as “same result”, the MIC [5] is reported as 0.006 mg/L (≈ 0.0137 µM) and the “minimum inhibitory concentration (MIC)” value [8] is reported as 0.013 mg/L (≈ 0.0297 µM). The “minimum inhibitory concentration (MIC)” value ([8]; listed as 18) was 0.006 mg/L (≈ 0.0137 µM) and the “minimum inhibitory concentration (MIC)” value ([11]; listed as 18) was 0.20 mg/L (≈ 0.457 µM).
In the case of `Cc1c(N2C[C@@H](F)[C@@H](C3(N)CC3)C2)c(F)c(N)c2c(=O)c(C(=O)O)cn([C@@H]3C[C@@H]3F)c12.Cl` [Example 15, 5-Amino-7-[4-(R)-(1-aminocyclopropyl)-3-(S)-fluoro-1-pyrrolidinyl]-6-fluoro-1-[2-(S)-fluoro-1-(R)-cyclopropyl]-1,4-dihydro-8-methyl-4-oxoquinoline-3-carboxylic acid hydrochloride], the Number of death [1, 15] is reported as 0/5.
`Cc1c(N2C[C@@H](CO)[C@@H](C3(N)CC3)C2)c(F)c(N)c2c(=O)c(C(=O)O)cn(C3CC3)c12` (relative stereo) [Example 14, 5-Amino-7-[cis-4-(1-aminocyclopropyl)-3-hydroxymethyl-1-pyrrolidinyl]-1-cyclopropyl-6-fluoro-1,4-dihydro-8-methyl-4-oxoquinoline-3-carboxylic acid] was tested, and the “acute toxicity result in words” value ([1]; 150 mg/kg) was “same result”.
